Results reported in ChEMBL document CHEMBL1143364, “Preliminary evaluation of pharmacological properties of some xanthone derivatives” (Bioorg Med Chem, 2009).
Calls of active or inactive are those of the source. No cut-off for these calls is given here.

Experiments:
Mus musculus [1] = experiment: Anticonvulsant activity in CF1 mouse assessed as inhibition of maximal electroshock-induced seizures at 300 mg/kg, ip after 0.5 hrs; type: functional, organism-based; set-up: dose 300 mg/kg
[2] = molecular target: T1, Adrenergic receptor alpha-1 (Rattus norvegicus, UniProt P15823+P23944+P43140); experiment: Displacement of [3H]prazosin from alpha1 adrenergic receptor in rat cerebral cortex by liquid scintillation counting; type: tissue-based
T1 sequence (P15823 whole entry): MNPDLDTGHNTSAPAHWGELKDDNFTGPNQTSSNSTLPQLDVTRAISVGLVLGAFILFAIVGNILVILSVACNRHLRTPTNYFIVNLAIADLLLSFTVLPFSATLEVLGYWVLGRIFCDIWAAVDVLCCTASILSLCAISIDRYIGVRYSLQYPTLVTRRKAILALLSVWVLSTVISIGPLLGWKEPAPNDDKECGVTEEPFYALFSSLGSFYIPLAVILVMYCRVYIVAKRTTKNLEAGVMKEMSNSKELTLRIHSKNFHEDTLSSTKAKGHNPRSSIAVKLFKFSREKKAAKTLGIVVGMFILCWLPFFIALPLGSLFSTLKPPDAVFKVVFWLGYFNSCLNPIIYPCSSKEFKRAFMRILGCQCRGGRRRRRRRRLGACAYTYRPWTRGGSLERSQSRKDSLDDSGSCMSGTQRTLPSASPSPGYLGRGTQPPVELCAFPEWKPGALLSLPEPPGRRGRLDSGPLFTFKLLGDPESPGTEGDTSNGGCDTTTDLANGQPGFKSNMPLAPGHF
T1 sequence (P23944 whole entry): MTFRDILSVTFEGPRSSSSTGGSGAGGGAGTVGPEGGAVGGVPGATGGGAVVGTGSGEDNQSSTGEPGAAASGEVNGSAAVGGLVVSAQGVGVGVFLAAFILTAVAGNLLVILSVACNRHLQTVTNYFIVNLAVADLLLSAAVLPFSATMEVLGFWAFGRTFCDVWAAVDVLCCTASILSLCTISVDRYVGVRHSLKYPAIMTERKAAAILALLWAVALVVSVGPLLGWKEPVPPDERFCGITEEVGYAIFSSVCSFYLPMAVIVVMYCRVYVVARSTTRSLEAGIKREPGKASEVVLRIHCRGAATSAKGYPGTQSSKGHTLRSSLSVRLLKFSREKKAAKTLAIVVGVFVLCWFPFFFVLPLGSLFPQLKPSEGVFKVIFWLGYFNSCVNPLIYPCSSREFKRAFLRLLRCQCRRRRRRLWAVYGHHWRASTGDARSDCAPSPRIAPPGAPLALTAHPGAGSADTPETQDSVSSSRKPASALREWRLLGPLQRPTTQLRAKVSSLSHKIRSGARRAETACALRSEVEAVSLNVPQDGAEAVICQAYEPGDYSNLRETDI
T1 sequence (P43140 whole entry): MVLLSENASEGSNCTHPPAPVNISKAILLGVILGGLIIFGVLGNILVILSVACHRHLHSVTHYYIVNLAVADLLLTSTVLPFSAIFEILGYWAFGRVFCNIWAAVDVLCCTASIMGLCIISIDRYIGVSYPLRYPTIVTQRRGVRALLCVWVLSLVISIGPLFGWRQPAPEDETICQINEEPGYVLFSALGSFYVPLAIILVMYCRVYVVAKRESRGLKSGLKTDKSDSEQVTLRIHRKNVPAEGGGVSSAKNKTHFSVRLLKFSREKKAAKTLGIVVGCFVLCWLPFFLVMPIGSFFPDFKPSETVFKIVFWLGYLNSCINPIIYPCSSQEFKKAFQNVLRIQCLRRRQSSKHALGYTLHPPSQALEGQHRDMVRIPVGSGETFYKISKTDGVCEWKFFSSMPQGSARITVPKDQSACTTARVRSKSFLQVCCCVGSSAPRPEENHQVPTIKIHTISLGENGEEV

Mus musculus [3] = experiment: Anticonvulsant activity in CF1 mouse assessed as inhibition of maximal electroshock-induced seizures at 100 mg/kg, ip after 0.5 hrs; type: functional, organism-based; set-up: dose 100 mg/kg
[4] = molecular target: Beta-1 adrenergic receptor (Rattus norvegicus, UniProt P18090); experiment: biochemical
Sequence of Beta-1 adrenergic receptor (P18090 whole entry): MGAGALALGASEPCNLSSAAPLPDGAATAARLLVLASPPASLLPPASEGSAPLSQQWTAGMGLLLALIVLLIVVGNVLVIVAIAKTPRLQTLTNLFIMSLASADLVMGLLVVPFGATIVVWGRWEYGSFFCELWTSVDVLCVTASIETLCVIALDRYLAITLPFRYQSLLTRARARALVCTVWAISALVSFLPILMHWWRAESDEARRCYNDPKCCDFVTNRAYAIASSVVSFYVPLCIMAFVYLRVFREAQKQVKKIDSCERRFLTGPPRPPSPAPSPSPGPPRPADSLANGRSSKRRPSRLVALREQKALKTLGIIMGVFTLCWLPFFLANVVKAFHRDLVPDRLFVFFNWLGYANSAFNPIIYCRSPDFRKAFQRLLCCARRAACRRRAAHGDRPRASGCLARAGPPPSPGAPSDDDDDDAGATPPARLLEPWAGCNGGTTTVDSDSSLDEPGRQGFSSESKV
Description: Displacement of [3H]CGP12177 from beta-1 adrenergic receptor in rat cerebral cortex by liquid scintillation counting

Rattus norvegicus [5] = experiment: Antiarrhythmic activity in anaesthetized iv dosed Wistar rat assessed as decrease in adrenaline-induced cardiac rhythm disturbance administered 15 mins before adrenaline challenge; type: functional; details: Heart
Rattus norvegicus [6] = experiment: Cardiotoxicity in Wistar rat assessed as decrease in cardiac beats per minute at 5 mg/kg, iv by ECG; type: toxicity, organism-based, Heart; set-up: dose 5 mg/kg, route intravenous; scale not given: the % may be the effect or the level left; details: in vivo
Rattus norvegicus [7] = experiment: Hypotensive activity in normotensive Wistar rat assessed as reduction in diastolic blood pressure at 2.5 mg/kg, iv; type: functional, organism-based; set-up: dose 2.5 mg/kg; details: Artery
Mus musculus [8] = experiment: Neurotoxicity in CF1 mouse at 100 mg/kg, ip after 4 hrs by rotarod test; type: toxicity, organism-based; set-up: dose 100 mg/kg, route intraperitoneal; details: in vivo
Mus musculus [9] = experiment: Anticonvulsant activity in CF1 mouse assessed as inhibition of subcutaneous pentylenetetrazole-induced seizures; type: functional, organism-based
Mus musculus [10] = experiment: Neurotoxicity in CF1 mouse at 30 mg/kg, ip after 0.5 hrs by rotarod test; type: toxicity, organism-based; set-up: dose 30 mg/kg, route intraperitoneal; details: in vivo
Mus musculus [11] = experiment: Anticonvulsant activity in CF1 mouse assessed as inhibition of maximal electroshock-induced seizures at 30 mg/kg, ip after 0.5 hrs; type: functional, organism-based; set-up: dose 30 mg/kg
Mus musculus [12] = experiment: Anticonvulsant activity in CF1 mouse assessed as inhibition of maximal electroshock-induced seizures at 300 mg/kg, ip after 4 hrs; type: functional, organism-based; set-up: dose 300 mg/kg
Mus musculus [13] = experiment: Anticonvulsant activity in CF1 mouse assessed as inhibition of maximal electroshock-induced seizures at 30 mg/kg, ip after 4 hrs; type: functional, organism-based; set-up: dose 30 mg/kg
Mus musculus [14] = experiment: Neurotoxicity in CF1 mouse at 30 mg/kg, ip after 4 hrs by rotarod test; type: toxicity, organism-based; set-up: dose 30 mg/kg, route intraperitoneal; details: in vivo
Mus musculus [15] = experiment: Anticonvulsant activity in CF1 mouse assessed as inhibition of maximal electroshock-induced seizures at 100 mg/kg, ip after 4 hrs; type: functional, organism-based; set-up: dose 100 mg/kg
Mus musculus [16] = experiment: Neurotoxicity in CF1 mouse at 300 mg/kg, ip after 0.5 hrs by rotarod test; type: toxicity, organism-based; set-up: dose 300 mg/kg, route intraperitoneal; details: in vivo
Mus musculus [17] = experiment: Neurotoxicity in CF1 mouse at 100 mg/kg, ip after 0.5 hrs by rotarod test; type: toxicity, organism-based; set-up: dose 100 mg/kg, route intraperitoneal; details: in vivo
Rattus norvegicus [18] = experiment: Cardiotoxicity in Wistar rat assessed as prolongation of PQ interval at 5 mg/kg, iv by ECG; type: toxicity, organism-based; set-up: dose 5 mg/kg, route intravenous; details: in vivo
Mus musculus [19] = experiment: Neurotoxicity in CF1 mouse at 300 mg/kg, ip after 4 hrs by rotarod test; type: toxicity, organism-based; set-up: dose 300 mg/kg, route intraperitoneal; details: in vivo
Rattus norvegicus [20] = experiment: Hypotensive activity in normotensive Wistar rat assessed as reduction in blood pressure at 10 mg/kg, iv after 60 mins; type: functional, organism-based; set-up: dose 10 mg/kg
Rattus norvegicus [21] = experiment: Cardiotoxicity in Wistar rat assessed as prolongation of PQ interval at 10 mg/kg, iv by ECG; type: toxicity, organism-based; set-up: dose 10 mg/kg, route intravenous; details: in vivo
Rattus norvegicus [22] = experiment: Cardiotoxicity in Wistar rat assessed as decrease in cardiac beats per minute at 10 mg/kg, iv by ECG; type: toxicity, organism-based, Heart; set-up: dose 10 mg/kg, route intravenous; scale not given: the % may be the effect or the level left; details: in vivo
Rattus norvegicus [23] = experiment: Hypotensive activity in normotensive Wistar rat assessed as reduction in diastolic blood pressure at 1.25 mg/kg, iv; type: functional, Artery; set-up: scale not given: the % may be the effect or the level left
Rattus norvegicus [24] = experiment: Cardiotoxicity in Wistar rat assessed as prolongation of QT interval at 10 mg/kg, iv by ECG; type: toxicity, organism-based; set-up: dose 10 mg/kg, route intravenous; details: in vivo
Rattus norvegicus [25] = experiment: Antiarrhythmic activity in anaesthetized Wistar rat assessed as decrease in arrhythmia-induced mortality at 1.25 mg/kg, iv administered 15 mins before adrenaline challenge; type: functional, Heart; set-up: scale not given: the % may be the effect or the level left
Rattus norvegicus [26] = experiment: Hypotensive activity in normotensive Wistar rat assessed as reduction in blood pressure at 0.625 mg/kg, iv after 60 mins; type: functional, organism-based; set-up: dose 0.625 mg/kg
Rattus norvegicus [27] = experiment: Hypotensive activity in normotensive Wistar rat assessed as reduction in systolic blood pressure at 1.25 mg/kg, iv; type: functional, Artery; set-up: scale not given: the % may be the effect or the level left

Structure (SMILES)	Activity (Mus musculus [1])	Ki [2] [µM]	Activity (Mus musculus [3])	Ki [4] [µM]	ED50 (Rattus norvegicus [5]) [mg/kg]	Activity (Mus musculus [8])	Activity (Mus musculus [9])	Activity (Mus musculus [10])	Activity (Mus musculus [11])	Activity (Mus musculus [12])	Activity (Mus musculus [13])	Activity (Mus musculus [14])	Activity (Mus musculus [15])	Activity (Mus musculus [16])	Activity (Mus musculus [17])	Activity (Mus musculus [19])	Activity (Rattus norvegicus [5])	Activity (Rattus norvegicus [22]) [%]	further results
CC(CO)(CO)NCC(O)COc1cccc2c(=O)c3ccccc3oc12.Cl (stereo not drawn)	inactive	49.8	inactive	0.004	1.75	Non-toxic	inactive	Non-toxic	inactive	inactive	inactive	Non-toxic	inactive	25%	Non-toxic	Non-toxic			Activity (Rattus norvegicus [6]): 13%; Activity (Rattus norvegicus [7]): inactive; Activity (Rattus norvegicus [18]): Toxic
C=CCNCC(O)COc1ccc2c(=O)c3ccccc3oc2c1.Cl (stereo not drawn)	Active	8.1		44.4		Non-toxic	inactive	Non-toxic	inactive	Active	inactive	Non-toxic	inactive	Toxic	Non-toxic	Non-toxic	Active		Activity (Rattus norvegicus [20]): Active
C=CCNCCCOc1cccc2c(=O)c3ccccc3oc12.Cl		4.6	inactive	7.7		Non-toxic	inactive	Non-toxic	inactive		inactive	Non-toxic	inactive	Toxic			Active	20	Activity (Rattus norvegicus [21]): Toxic
CC(C)(CO)NCC(O)COc1cccc2c(=O)c3ccc(Cl)cc3oc12.Cl (stereo not drawn)	inactive	5.6	inactive	0.011	2.46		inactive		inactive	inactive	inactive	Non-toxic	inactive	Toxic		Toxic		30	Activity (Rattus norvegicus [23]): 19%; Activity (Rattus norvegicus [24]): 13%; Activity (Rattus norvegicus [25]): 60%; Activity (Rattus norvegicus [26]): Active; Activity (Rattus norvegicus [27]): 17%
